Data from BigSolDB 2.1.

CC(=O)Nc1ccc(O)cc1
Conditions | solubility (mole fraction)
in acetone, 292.95 K | 0.0327
in acetone, 302.85 K | 0.0411
in acetone, 311.95 K | 0.0534
in acetone, 320.65 K | 0.068
in ethanol, 295.15 K | 0.0549
in ethanol, 305.35 K | 0.0662
in ethanol, 314.15 K | 0.0737
in ethanol, 322.15 K | 0.0898
in ethanol, 332.95 K | 0.116
in ethanol, 341.25 K | 0.141
in ethanol, 350.05 K | 0.18
in ethanol, 360.15 K | 0.216
in isopropanol, 293.65 K | 0.0415
in isopropanol, 304.05 K | 0.0509
in isopropanol, 313.05 K | 0.0604
in isopropanol, 320.25 K | 0.0696
in isopropanol, 325.35 K | 0.0787
in isopropanol, 330.25 K | 0.0876
in isopropanol, 336.15 K | 0.105
in isopropanol, 343.45 K | 0.121
in isopropanol, 348.15 K | 0.136
in isopropanol, 353.05 K | 0.152
in isopropanol, 356.15 K | 0.159
in methanol, 293.45 K | 0.0594
in methanol, 303.55 K | 0.073
in methanol, 313.95 K | 0.0906
in methanol, 323.35 K | 0.111
in methanol, 330.95 K | 0.133
in methanol, 341.55 K | 0.175
in methanol, 354.15 K | 0.229
in n-butanol, 293.05 K | 0.0364
in n-butanol, 302.95 K | 0.0439
in n-butanol, 312.55 K | 0.0526
in n-butanol, 323.05 K | 0.0659
in n-butanol, 332.55 K | 0.0792
in n-butanol, 343.65 K | 0.099
in n-butanol, 353.15 K | 0.126
in n-butanol, 362.65 K | 0.152
in n-pentanol, 303.55 K | 0.038
in n-pentanol, 313.85 K | 0.0468
in n-pentanol, 323.65 K | 0.0571
in n-pentanol, 333.65 K | 0.073
in n-pentanol, 343.55 K | 0.0893
in n-pentanol, 353.75 K | 0.108
in n-pentanol, 361.55 K | 0.129
in n-propanol, 293.05 K | 0.0412
in n-propanol, 302.95 K | 0.0501
in n-propanol, 312.55 K | 0.061
in n-propanol, 322.55 K | 0.0735
in n-propanol, 332.25 K | 0.093
in n-propanol, 342.15 K | 0.117
in n-propanol, 351.25 K | 0.142
in n-propanol, 359.15 K | 0.165
